Results taken from EPA's ToxValDB 9.5 (doi:10.2903/j.efsa.2014.3880).
Values joined by “and” are separate entries in the source; they are usually repeats but may differ in a detail not shown here. Equal values may be shown once.

Columns and labels:
[1] = system: Daphnia magna; details: chronic/long-term; duration: 21 days; reproduction
[2] = system: Anas platyrhynchos; details: short-term; oral; feed; food consumption
[3] = system: Apis mellifera; details: acute, mortality
[4] = system: Colinus virginianus
[5] = system: Folsomia candida; details: chronic/long-term
[6] = system: Bibionidae; details: chronic/long-term; duration: 23 days; reproduction
[7] = system: Rattus norvegicus; details: for NOAEL: chronic
[8] = system: Tagia sp.
[9] = system: Oncorhynchus mykiss; details: chronic/long-term; duration: 65 days; mortality
[10] = system: Typhlodromus pyri; assay: LR50; higher = less toxic; details: not reported; reproduction

## c1ccc2[nH]c(-c3cscn3)nc2c1 [Thiabendazole]
[1]
  NOEC: 0.041 mg/L
[2]
  LC50: > 1290 mg/kg
[3]; dermal
  LD50: > 34 µg/piece
[3]; oral, unspecified
  LD50: > 200 µg/piece
[4]; acute, oral
  LD50: > 2250 mg/kg
[4]; reproduction developmental
  NOAEL: 34.9 mg/kg-day
[5]
  NOEC: 25 mg/kg
[6]
  NOEC: 2 mg/L and 3 mg/kg
[7]; acute
  LD50: 3100 mg/kg
[7]
  NOAEL: 10 mg/kg-day
[7]; duration: 2 years, histopathology: neoplastic
  NOAEL: 10 mg/kg-day
[7]; reproduction developmental, reproduction
  NOEL: 10 mg/kg-day
[8]; acute, duration: 14 days, mortality
  LC50: > 224 mg/kg
[8]; chronic/long-term, duration: 8 weeks
  NOEC: 2.1 mg/kg
[9]
  NOEC: 0.012 mg/L
[10]
  LR50: > 1800 g/ha
